Among the data in patent US12129237B2, “Substituted diaminocarboxamide and diaminocarbonitrile pyrimidines, compositions thereof, and methods of treatment therewith” (SIGNAL PHARMACEUTICALS, LLC, priority 2011, dated 2024) are IC50 values, retold here.

T1 sequence (P45983 whole entry): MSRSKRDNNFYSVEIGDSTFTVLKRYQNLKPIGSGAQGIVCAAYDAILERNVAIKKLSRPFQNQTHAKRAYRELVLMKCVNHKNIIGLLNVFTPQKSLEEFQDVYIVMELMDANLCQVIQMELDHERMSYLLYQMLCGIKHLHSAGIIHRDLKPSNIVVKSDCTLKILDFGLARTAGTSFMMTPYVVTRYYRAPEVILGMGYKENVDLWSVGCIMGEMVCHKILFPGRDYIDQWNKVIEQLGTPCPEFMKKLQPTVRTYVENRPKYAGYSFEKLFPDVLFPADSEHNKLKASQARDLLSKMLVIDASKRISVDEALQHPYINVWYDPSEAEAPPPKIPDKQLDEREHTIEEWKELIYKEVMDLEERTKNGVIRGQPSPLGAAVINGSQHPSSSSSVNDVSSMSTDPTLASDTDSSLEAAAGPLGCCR

The first experiment addresses T1, JNK1 (Homo sapiens, UniProt P45983).
T1 construct: purchased Carna Biosciences
The experiment can be described thus: JNK1 biochemical assays (one or more of: time resolved fluorescence, Z'-LYTE Cascade, radioactive). The conditions noted are these: Table 2; JNK1 IC50 activity level; read-out: Act. Level.
For the molecule `COc1ccccc1Nc1ncc(C(N)=O)c(Nc2ccccc2)n1` [Example B-15, 2-(2-methoxyphenylamino)-4-(phenylamino)pyrimidine-5-carboxamide], the IC50 is below 200 nM.

For the molecule `C[C@]1(O)CCC[C@@H](Nc2nc(N[C@H]3CCc4ncccc4C3)ncc2C(N)=O)C1` [Example B-102, 4-((1R,3S)-3-hydroxy-3-methylcyclohexylamino)-2-((S)-5,6,7,8-tetrahydroquinolin-6-ylamino)pyrimidine-5-carboxamide], the IC50 is below 200 nM.

As to `CC(C)(C)Nc1ncc(C(N)=O)c(Nc2ccccc2)n1` [Example B-12, 2-(tert-butylamino)-4-(phenylamino)pyrimidine-5-carboxamide], the IC50 is below 200 nM.

Regarding `COc1ccc(Nc2ncc(C(N)=O)c(Nc3ccccc3)n2)cn1` [Example B-16, 2-(6-methoxypyridin-3-ylamino)-4-(phenylamino)pyrimidine-5-carboxamide], the IC50 is below 200 nM.

As for `NC(=O)c1cnc(N[C@@H]2CCOc3ccccc32)nc1N[C@@H]1CCC[C@H](O)C1` [Example B-79, 2-((R)-chroman-4-ylamino)-4-((1R,3S)-3-hydroxycyclohexylamino)pyrimidine-5-carboxamide], the IC50 was below 200 nM.

As for `Cc1cccc(Nc2ncc(C(N)=O)c(Nc3ccccc3)n2)c1` [Example B-28, 4-(phenylamino)-2-(m-tolylamino)pyrimidine-5-carboxamide], the IC50 is below 200 nM.

Staying with this experiment, now noted: Table 3; JNK1 IC50 activity level; read-out: Act. Level.
As to `CCO[C@H]1CC[C@H](Nc2ncc(C#N)c(N[C@H]3CCOC3)n2)CC1` [Example C-37, 2-((1r,4S)-4-ethoxycyclohexylamino)-4-((S)-tetrahydrofuran-3-ylamino)pyrimidine-5-carbonitrile], the IC50 was in the range of 200 to 800 nM.

Turning to `CC(C)(C)Nc1ncc(C#N)c(N[C@@H]2CCC[C@](C)(O)C2)n1` [Example C-59, 2-(tert-butylamino)-4-((1R,3S)-3-hydroxy-3-methylcyclohexylamino) pyrimidine-5-carbonitrile], the IC50 is 200 to 800 nM.

The same experiment, now with this note: one or more of the JNK1 biochemical assays; read-out: Act. Level (JNK1 IC50 activity level).
As for `C[C@@H]1CC[C@@H](Nc2nc(NC3CCC3)ncc2C(N)=O)C[C@H]1O` [Example 285, 2-(cyclobutylamino)-4-((1R,3R,4R)-3-hydroxy-4-methylcyclohexylamino)pyrimidine-5-carboxamide], the IC50 was below 200 nM.

On to `C[C@@H]1CC[C@@H](Nc2nc(NC3(C4CC4)CC3)ncc2C(N)=O)C[C@H]1O` [Example 474, 2-(bi(cycloprop)ylamino)-4-((1R,3R,4R)-3-hydroxy-4-methylcyclohexylamino)pyrimidine-5-carboxamide], for which the IC50 was below 200 nM.

`CCO[C@H]1CC[C@H](Nc2ncc(C(N)=O)c(NC(C)(C)C3CC3)n2)CC1` [Example 314, 4-(2-cyclopropylpropan-2-ylamino)-2-((1r,4r)-4-ethoxycyclohexylamino)pyrimidine-5-carboxamide]: the IC50 is below 200 nM.

Consider `CCO[C@H]1CC[C@H](Nc2ncc(C(N)=O)c(NC3(C)CCCCC3)n2)CC1` [Example 359, 2-((1r,4r)-4-ethoxycyclohexylamino)-4-(1-methylcyclohexylamino)pyrimidine-5-carboxamide], for which the IC50 is below 200 nM.

On to `NC(=O)c1cnc(NC2CCOCC2)nc1NC12CC(C1)C2` [Example 407, 4-(bicyclo[1.1.1]pentan-1-ylamino)-2-(tetrahydro-2H-pyran-4-ylamino)pyrimidine-5-carboxamide], for which the IC50 was below 200 nM.

On to `C[C@@H](Nc1nc(N[C@H]2CCCOC2)ncc1C(N)=O)C1CC1` [Example 422, 4-((R)-1-cyclopropylethylamino)-2-((S)-tetrahydro-2H-pyran-3-ylamino)pyrimidine-5-carboxamide], for which the IC50 was below 200 nM.

Turning to `CC(C)(C)Nc1nc(N[C@H]2CCCOC2)ncc1C(N)=O` [Example 300, (S)-4-(tert-butylamino)-2-(tetrahydro-2H-pyran-3-ylamino)pyrimidine-5-carboxamide], the IC50 was below 200 nM.

For the molecule `CC(C)Nc1ncc(C(N)=O)c(N[C@@H]2CC[C@@H](C)[C@H](O)C2)n1` [Example 240, 4-((1R,3R,4R)-3-hydroxy-4-methylcyclohexylamino)-2-(isopropylamino)pyrimidine-5-carboxamide], the IC50 was below 200 nM.

Take `CC(C)[C@H](C)Nc1ncc(C(N)=O)c(N[C@@H]2CC[C@@H](C)[C@H](O)C2)n1` [Example 471, 4-((1R,3R,4R)-3-hydroxy-4-methylcyclohexylamino)-2-((S)-3-methylbutan-2-ylamino)pyrimidine-5-carboxamide]: the IC50 was below 200 nM.

Turning to `CC(C)Nc1nc(NC23CCC(F)(CC2)CC3)ncc1C(N)=O` [Example 253, 2-(4-fluorobicyclo[2.2.2]octan-1-ylamino)-4-(isopropylamino)pyrimidine-5-carboxamide], the IC50 is below 200 nM.

Turning to `CC(C)(Nc1nc(N[C@@H]2CCC[C@@H](O)C2)ncc1C(N)=O)C1CC1` [Example 465, 4-(2-cyclopropylpropan-2-ylamino)-2-((1R,3R)-3-hydroxycyclohexylamino)pyrimidine-5-carboxamide], the IC50 is below 200 nM.

Regarding `CC(C)(C)Nc1ncc(C(N)=O)c(N[C@@H]2CCCOC2)n1` [Example 236, (R)-2-(tert-butylamino)-4-(tetrahydro-2H-pyran-3-ylamino)pyrimidine-5-carboxamide], the IC50 fell in the range of 200 to 800 nM.

For `CC(C)[C@@H](C)Nc1ncc(C(N)=O)c(N[C@@H]2CC[C@@H](C)[C@H](O)C2)n1` [Example 470, 4-((1R,3R,4R)-3-hydroxy-4-methylcyclohexylamino)-2-((R)-3-methylbutan-2-ylamino)pyrimidine-5-carboxamide], the IC50 is below 200 nM.

Turning to `CC(C)(Nc1nc(N[C@H]2CC[C@H](OCC(F)(F)F)CC2)ncc1C(N)=O)C1CC1` [Example 482, 4-(2-cyclopropylpropan-2-ylamino)-2-((1r,4r)-4-(2,2,2-trifluoroethoxy)cyclohexylamino)pyrimidine-5-carboxamide], the IC50 is below 200 nM.

Consider `CCO[C@H]1CC[C@H](Nc2ncc(C(N)=O)c(N[C@@H](C)C3CCC3)n2)CC1` [Example 293, 4-((S)-1-cyclobutylethylamino)-2-((1r,4S)-4-ethoxycyclohexylamino)pyrimidine-5-carboxamide], for which the IC50 is below 200 nM.

As for `CCO[C@H]1CC[C@H](Nc2ncc(C(N)=O)c(NC3(CC)CCCC3)n2)CC1` [Example 464, 2-((1r,4r)-4-ethoxycyclohexylamino)-4-(1-ethylcyclopentylamino)pyrimidine-5-carboxamide], the IC50 was below 200 nM.

On to `CC(C)CNc1ncc(C(N)=O)c(N[C@@H]2CCC[C@H](O)C2)n1` [Example 495, 4-((1R,3S)-3-hydroxycyclohexylamino)-2-(isobutylamino)pyrimidine-5-carboxamide], for which the IC50 was below 200 nM.

As to `CCO[C@H]1CC[C@H](Nc2ncc(C(N)=O)c(NC(C)(C)C(C)(C)C)n2)CC1` [Example 332, 2-((1r,4r)-4-ethoxycyclohexylamino)-4-(2,3,3-trimethylbutan-2-ylamino)pyrimidine-5-carboxamide], the IC50 was below 200 nM.

The experiment is the same for the next values; noted with them: tested in one or more of the JNK1 biochemical assays; read-out: Act. Level (JNK1 biochemical assay IC50 activity level).
With `NC(=O)c1cnc(N[C@H]2CC[C@H](O)CC2)nc1NC1CCCCC1` [Example A-144, 4-(cyclohexylamino)-2-((1r,4r)-4-hydroxycyclohexylamino)pyrimidine-5-carboxamide], the IC50 is below 200 nM.

`CCC(=O)N1CCC(Nc2ncc(C(N)=O)c(NC3CCCC3)n2)CC1` [Example A-114, 4-(cyclopentylamino)-2-(1-propionylpiperidin-4-ylamino)pyrimidine-5-carboxamide]: the IC50 was below 200 nM.

For the molecule `CC(C)Nc1ncc(C(N)=O)c(N[C@H]2CC[C@@H](C(=O)N3CCCC3)CC2)n1` [Example A-143, 2-(isopropylamino)-4-((1s,4s)-4-(pyrrolidine-1-carbonyl)cyclohexylamino)pyrimidine-5-carboxamide], the IC50 fell in the range of 800 to 1000 nM.

As for `CO[C@H]1CC[C@H](Nc2ncc(C(N)=O)c(N[C@H]3CCC[C@@H]3O)n2)CC1` [Example A-91, 4-((1S,2S)-2-hydroxycyclopentylamino)-2-((1r,4S)-4-methoxycyclohexylamino)pyrimidine-5-carboxamide], the IC50 was below 200 nM.

Regarding `CO[C@H]1CC[C@H](Nc2ncc(C(N)=O)c(NC3COCC(O)C3)n2)CC1` (stereo partly drawn) [Example A-13, 4-(5-hydroxytetrahydro-2H-pyran-3-ylamino)-2-((1r,4r)-4-methoxycyclohexylamino)pyrimidine-5-carboxamide], the IC50 is below 200 nM.

On to `NC(=O)c1cnc(N[C@H]2CCCOC2)nc1N[C@@H]1CCC[C@H](O)C1` [Example A-52, 4-((1R,3S)-3-hydroxycyclohexylamino)-2-((S)-tetrahydro-2H-pyran-3-ylamino)pyrimidine-5-carboxamide], for which the IC50 was below 200 nM.

As for `NC(=O)c1cnc(N[C@H]2CC[C@H](O)CC2)nc1NC1CC1` [Example A-175, 4-(cyclopropylamino)-2-((1r,4r)-4-hydroxycyclohexylamino)pyrimidine-5-carboxamide], the IC50 was below 200 nM.

Regarding `NC(=O)c1cnc(N[C@H]2CC[C@](O)(c3ccccc3)CC2)nc1N[C@H]1CCC[C@@H]1O` [Example A-70, 2-((1s,4R)-4-hydroxy-4-phenylcyclohexylamino)-4-((1S,2S)-2-hydroxycyclopentylamino)pyrimidine-5-carboxamide], the IC50 is 200 to 800 nM.

Take `NC(=O)c1cnc(NC2CCOCC2)nc1N[C@@H]1CCCC[C@H](O)C1` [Example A-166, 4-((1R,3S)-3-hydroxycycloheptylamino)-2-(tetrahydro-2H-pyran-4-ylamino)pyrimidine-5-carboxamide]: the IC50 is below 200 nM.

Consider `CO[C@H]1CC[C@H](Nc2ncc(C(N)=O)c(N[C@H]3CCCC[C@@](C)(O)C3)n2)CC1` [Example A-185, 4-((1S,3R)-3-hydroxy-3-methylcycloheptylamino)-2-((1r,4S)-4-methoxycyclohexylamino)pyrimidine-5-carboxamide], for which the IC50 was below 200 nM.
